Reference: US8088819B2, “Derivatives of substituted 3-phenyl-1-(phenylthienyl)propan-1-ones and of 3-phenyl-1-(phenylfuranyl) propan-1-ones, preparation and use” (priority 2006, dated 2012)

How the values were obtained:
[1] = molecular target: T1, hPPARalpha (Homo sapiens, UniProt Q07869); test: PPAR activation: Gal4-hPPARα chimera luciferase transactivation in COS-7 cells, Method 2; assay type: cell-based; conditions: COS-7, 24 h; for EC50: 1% Ultroser; for Emax: maximum percentage response relative to the reference phenofibric acid, read-out: hPPARalpha % max
T1 construct: expressed in transfected cells; host or cells: COS-7 (monkey kidney fibroblasts)
T1 sequence (Q07869 239-466 limits assumed): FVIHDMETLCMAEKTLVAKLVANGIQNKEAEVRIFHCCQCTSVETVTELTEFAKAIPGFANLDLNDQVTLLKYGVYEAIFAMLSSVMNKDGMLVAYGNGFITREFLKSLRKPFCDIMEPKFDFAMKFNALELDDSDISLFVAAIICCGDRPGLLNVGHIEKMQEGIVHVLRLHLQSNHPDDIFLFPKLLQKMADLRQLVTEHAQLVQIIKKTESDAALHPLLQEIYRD
Procedure, shortened: (§1)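 COS-7 cells were transfected with Gal4-PPAR LBD chimera plus Gal4(RE)_TkpGL3 luciferase reporter (1/10) and seeded serum-free for 4 h. Compounds at 10^−5 to 100 μm were applied for 24 h at 37° C in 1% lipid-free synthetic serum. Luciferase was read after lysis, and EC50 derived.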

[2] = tested on: target genes of PPARδ in murine myocytes (C2C12); test: Expression of target genes of PPARδ (PDK4, CPT1b, UCP2, UCP3) in murine myocytes, quantitative RT-PCR; assay type: cell-based; conditions: murine myocytes in vitro
Source text: It is established that regulation of the expression of these genes is directly controlled by PPARδ in this cell type. The more the expression of the genes is increased, the greater the stimulating action of the compound according to the invention on metabolism in the muscle cells.
Cells from the murine cell line C2C12 (obtained from ECACC) are cultivated in DMEM medium (Gibco; 41965-039) with addition of 1% L-glutamine (Gibco; 25030), 1% of penicillin/streptomycin (VWR; BWSTL0022/100) and 10% decomplemented fetal calf serum (FCS. Gibco; 10270-106).
The cells are seeded on 24-well plates at a density of 50·10^3 cells/well. At confluence, the medium is replaced with a differentiating medium (basal medium with addition of 2% of horse serum (Gibco; 26050-088)), then incubated at 37° C. and 5% CO2 for 4 days in order to differentiate them to myocytes.
After 5 days of differentiation, the cells are put in a deprivation medium (basal medium without serum) for 6 hours. The cells are then treated with the compounds according to the invention in the deprivation medium. Compounds 2, 4, 7, 11, 39, 40, 46, 49 and 72 were in dose effect, corresponding to 1×, 10× and 100× their EC50 PPARδ. The compounds according to the invention were dissolved in dimethylsulfoxide (DMSO, Sigma; D5879). The cells were treated for 24 h at 37° C., 5% CO2. The effect of the compounds according to the invention was compared with the effect of DMSO alone.
After treatment, the total RNA is extracted from the cells using the NucleoSpine® 96 RNA kit (Macherey Nagel, Hoerdt, France) following the manufacturer's instructions.
1 μg of total RNA (quantified based on the UV spectrophotometer reading) was then reverse-transcribed to complementary DNA by reaction for 1 hour at 37° C. in a total volume of 30 μl containing buffer 1× (Invitrogen), 1.5 mM of DTT, 0.18 mM of dNTPs (Promega), 200 ng of pdN6 (Amersham), 30 U of RNase inhibitor (Promega) and 1 μl of MMLV-RT (Invitrogen).
The quantitative PCR experiments were carried out using the MyiQ Single-Color Real-Time PCR Detection System (Biorad, Marnes-la-Coquette, France) and were performed using the iQ SYBR Green Supermix kit following the supplier's recommendations, in 96-well plates, on 5 μl of diluted reverse-transcription reaction mixtures with a hybridization temperature of 60° C. Primer pairs specific to the PDK4, CPT1b, UCP2 and UCP3 genes under investigation were used:
The amount of fluorescence emitted is directly proportional to the amount of complementary DNA present at the start of the reaction and amplified during PCR. For each target investigated, a range is produced by successive dilutions of a pool constituted of a few microliters of various reverse-transcription reaction mixtures. The relative expression levels of each target are thus determined using the efficacy curves obtained with the points in the range.
The levels of expression of the genes of interest were then normalized relative to the level of expression of the reference gene 36B4 (whose specific primers are: sense primer: 5′-[…]-3′ (SEQ ID No. 19) and antisense primer: 5′-[…]-3′ (SEQ ID No. 20)). The induction factor, i.e. the ratio of the relative signal (induced by the compound according to the invention) to the mean of the relative values of the control group, was then calculated. The higher this factor, the greater the activating character of the compounds according to the invention with respect to gene expression. The final result is represented as the mean of the induction values in each experimental group.

[3] = molecular target: T2, hPPARdelta (Homo sapiens, UniProt Q03181); test: PPAR activation: Gal4-hPPARδ chimera luciferase transactivation in COS-7 cells, Method 2; assay type: cell-based; conditions: COS-7, 24 h; for EC50: 1% Ultroser; for Emax: maximum percentage response relative to the reference GW501516, read-out: hPPARdelta % max
T2 construct: expressed in transfected cells; host or cells: COS-7 (monkey kidney fibroblasts)
T2 sequence (Q03181 211-439 limits assumed): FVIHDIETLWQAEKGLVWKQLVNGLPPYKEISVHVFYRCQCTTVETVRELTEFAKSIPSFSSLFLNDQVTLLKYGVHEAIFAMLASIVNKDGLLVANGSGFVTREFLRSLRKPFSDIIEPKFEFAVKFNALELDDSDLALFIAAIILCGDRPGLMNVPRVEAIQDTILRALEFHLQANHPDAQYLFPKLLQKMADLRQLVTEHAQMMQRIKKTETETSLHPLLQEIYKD
Procedure, shortened: as §1

[4] = molecular target: T3, hPPARgamma (Homo sapiens, UniProt P37231); test: PPAR activation: Gal4-hPPARγ chimera luciferase transactivation in COS-7 cells, Method 2; assay type: cell-based; conditions: COS-7, 24 h, Method 2; for Emax: maximum percentage response relative to the reference rosiglitazone, read-out: hPPARgamma % max; for EC50: 1% Ultroser, read-out: hPPARgamma EC50
T3 construct: expressed in transfected cells; host or cells: COS-7 (monkey kidney fibroblasts)
T3 sequence (P37231 238-503 limits assumed): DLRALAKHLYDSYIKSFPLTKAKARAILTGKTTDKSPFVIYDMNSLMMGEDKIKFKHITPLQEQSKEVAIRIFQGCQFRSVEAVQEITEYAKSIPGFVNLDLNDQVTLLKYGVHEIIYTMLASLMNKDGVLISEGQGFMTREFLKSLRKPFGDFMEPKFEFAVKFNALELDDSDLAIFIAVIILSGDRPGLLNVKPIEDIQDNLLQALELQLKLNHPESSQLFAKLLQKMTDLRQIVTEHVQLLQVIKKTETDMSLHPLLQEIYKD
Procedure, shortened: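 Transactivation by a Gal4 DNA-binding domain–hPPARγ ligand-binding domain chimera with a Gal4(RE)-luciferase reporter, transfected into COS-7 cells (plasmid ratio 1/10).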

[5] = molecular target: T1, hPPARalpha; test: PPAR activation: Gal4-hPPARα chimera luciferase transactivation in COS-7 cells, Method 1; assay type: cell-based; conditions: COS-7, 24 h; for Emax: maximum percentage response relative to the reference phenofibric acid, read-out: hPPARalpha % max
Procedure: (§2) The activation of the PPARs was evaluated in vitro on a line of monkey kidney fibroblasts (COS-7) by measuring the transcriptional activity of chimeras constituted of the DNA binding domain of the Gal4 transcription factor of yeast and the ligand binding domain of the various PPARs. The compounds were tested at doses between 10^−5 and […] on the chimeras Gal4-PPARα, γ or δ, and the corresponding EC50 values were determined.
(§3) The COS-7 cells were obtained from the ATCC and were cultivated in DMEM medium supplemented with 10% (v/v) of fetal calf serum, 100 U/ml of penicillin (Gibco, Paisley, UK) and 2 mM of L-glutamine (Gibco, Paisley, UK). The cells were incubated at 37° C. in a humid atmosphere containing 5% CO2.
(§4) The plasmids Gal4(RE)_TkpGL3, pGal4-hPPARα, pGal4-hPPARγ, pGal4-hPPARδ and pGal4-φ are described in the literature (Raspe E et al., 1999). The constructs pGal4-hPPARα, pGal4-hPPARγ and pGal4-hPPARδ were obtained by cloning DNA fragments amplified by PCR corresponding to the DEF domains of the human nuclear receptors PPARα, PPARγ and PPARδ in the pGal4-φ vector.
(§5) The COS-7 cells in suspension were transfected with 150 ng of DNA per well, with a pGal4-PPAR/Gal4(RE)_TkpGL3 ratio of 1/10, in the presence of 10% fetal calf serum. The cells were seeded in 96-well plates (4×10^4 cells/well) and then incubated at 37° C. for 24 hours. Activation with the test compounds is carried out for 24 h at 37° C. in serum-free medium. At the end of the experiment, the cells were lysed and the luciferase activity was determined using the Steady-Lite™ HTS (Perkin Elmer) following the supplier's recommendations.

[6] = molecular target: T2, hPPARdelta; test: PPAR activation: Gal4-hPPARδ chimera luciferase transactivation in COS-7 cells, Method 1; assay type: cell-based; conditions: COS-7, 24 h; for Emax: maximum percentage response relative to the reference GW501516, read-out: hPPARdelta % max
Procedure: as §2, §3, §4, §5

[7] = molecular target: T3, hPPARgamma; test: PPAR activation: Gal4-hPPARγ chimera luciferase transactivation in COS-7 cells, Method 1; assay type: cell-based; conditions: COS-7, 24 h; for Emax: maximum percentage response relative to the reference rosiglitazone, read-out: hPPARgamma % max
Procedure: as §2, §3, §4, §5

Row | SMILES | EC50 [1] [nM] | Emax [1] [%] | EC50 [3] [nM] | Emax [3] [%] | Emax [4] [%] | EC50 [4] [nM] | melting point [°C] | EC50 [5] [nM] | Emax [5] [%] | EC50 [6] [nM] | Emax [6] [%] | Emax [7] [%] | EC50 [7] [nM] | expression of genes involved in carbohydrate and lipid metabolism and in thermoregulation [2]
1 | CC(C)(Oc1ccc(CCC(=O)c2ccc(-c3ccc(C(F)(F)F)cc3)s2)c(F)c1F)C(=O)O [Compound 46, 2-(2,3-difluoro-4-(3-oxo-3-(5-(4-(trifluoromethyl)phenyl)thien-2-yl)propyl)phenoxy)-2-methylpropanoic acid] | – | – | – | – | – | – | 165 to 166 | 11 | 58 | 18 | 105 | 30 | – | stimulating effects
2 | CC(C)(Oc1ccc(CCC(OCc2cccnc2)c2ccc(-c3ccc(C(F)(F)F)cc3)s2)c(Cl)c1Cl)C(=O)O (stereo not shown) [Compound 39, 2-(2,3-dichloro-4-(3-(pyridin-3-ylmethoxy)-3-(5-(4-(trifluoromethyl)phenyl)thien-2-yl)propyl)phenoxy)-2-methylpropanoic acid] | 1010 | 36 | 6 | 90 | 52 | 550 | 75 to 77 | – | – | – | – | – | – | stimulating effects
3 | COC(CCc1ccc(OC(C)(C)C(=O)O)c(Cl)c1Cl)c1ccc(-c2ccc(C(F)(F)F)cc2)s1 (stereo not shown) [Compound 40, 2-(2,3-dichloro-4-(3-methoxy-3-(5-(4-(trifluoromethyl)phenyl)-thien-2-yl)propyl)phenoxy)-2-methylpropanoic acid] | 590 | 35 | 5 | 78.3 | 32 | 990 | 46 to 48 | – | – | – | – | – | – | stimulating effects

Further lines, with some results ahead:

Row | EC50 [1] [nM] | Emax [1] [%] | EC50 [3] [nM] | Emax [3] [%] | Emax [4] [%] | EC50 [4] [nM] | melting point [°C] | EC50 [5] [nM] | Emax [5] [%] | EC50 [6] [nM] | Emax [6] [%] | Emax [7] [%] | EC50 [7] [nM] | SMILES | expression of genes involved in carbohydrate and lipid metabolism and in thermoregulation [2]
4 | 4210 | 46 | 180 | 97 | 44 | 7910 | – | – | – | – | – | – | – | CC(C)(Oc1ccc(CCC(OCc2ccccc2)c2ccc(-c3ccc(C(F)(F)F)cc3)s2)c(F)c1F)C(=O)O (stereo not shown) [Compound 63, 2-(4-(3-(benzyloxy)-3-(5-(4-(trifluoromethyl)phenyl)thien-2-yl)-propyl)-2,3-difluorophenoxy)-2-methylpropanoic acid] | stimulating effects
5 | 270 | 59 | – | 97 | 70 | 160 | – | – | – | – | – | – | – | COC(CCc1ccc(OC(C)(C)C(=O)O)c(Cl)c1Cl)c1ccc(-c2ccc(C(F)(F)F)cc2)o1 (stereo not shown) [Compound 72, 2-(2,3-dichloro-4-(3-methoxy-3-(5-(4-(trifluoromethyl)phenyl)fur-2-yl)propyl)phenoxy)-2-methylpropanoic acid] | stimulating effects
6 | – | – | – | – | – | – | 157 to 158 | – | 49 | 6 | 86 | 85 | 560 | Cc1cc(CCC(=O)c2ccc(-c3ccc(C(F)(F)F)cc3)s2)cc(C)c1OC(C)(C)C(=O)O [Compound 48, 2-(2,6-dimethyl-4-(3-oxo-3-(5-(4-(trifluoromethyl)phenyl)thien-2-yl)propyl)phenoxy)-2-methylpropanoic acid] | stimulating effects
